Measurements published in US4160829A, “Antibacterial 1,2,4-oxadiazolylacetamido cephalosporins” (Gist-Brocades N.V., priority 1972, dated 1979).
Converted amounts (≈) assume the structure as drawn. Read-outs that look alike come from different tables or passages of the source.

Experiments:
[1] = test system: Bac.Subt.ATCC 6633; test: agar serial dilution test; type: cell-based, Bacillus subtilis; settings: Bacillus subtilis, ATCC6633, 24 h, agar serial dilution, 24 hours, 37° C.; read-out: minimal inhibitory concentration (MIC)
[2] = test system: Staph.aureus A 321; test: agar serial dilution test; type: cell-based, Staphylococcus aureus; settings: Staphylococcus aureus, A321, 24 h, agar serial dilution, 24 hours, 37° C.; read-out: minimal inhibitory concentration (MIC)
[3] = test system: Staph.aureus A 2000; test: agar serial dilution test; type: cell-based, Staphylococcus aureus; settings: Staphylococcus aureus, A2000, 24 h, agar serial dilution, 24 hours, 37° C.; read-out: minimal inhibitory concentration (MIC)
[4] = test system: Staph.aureus A 2001; test: agar serial dilution test; type: cell-based, Staphylococcus aureus; settings: Staphylococcus aureus, A2001, 24 h, read-out: minimal inhibitory concentration (MIC)
[5] = test system: Strep.haem. A 266; test: agar serial dilution test; type: cell-based, Streptococcus haemolyticus; settings: Streptococcus; agar serial dilution, 24 hours, 37° C.; read-out: minimal inhibitory concentration (MIC)
[6] = test system: Strep. faec. L 80; test: agar serial dilution test; type: cell-based, Streptococcus faecalis; settings: Enterococcus faecalis; agar serial dilution, 24 hours, 37° C.; read-out: minimal inhibitory concentration (MIC)
[7] = test system: Dipl.pneum. L 54; test: agar serial dilution test; type: cell-based, Diplococcus pneumoniae; settings: Streptococcus pneumoniae; agar serial dilution, 24 hours, 37° C.; read-out: minimal inhibitory concentration (MIC)
[8] = test system: Bruc.melit. A 488; test: microbe, parasite or virus in culture; type: cell-based; settings: Brucella melitensis, 24 h, read-out: minimal inhibitory concentration (MIC)
[9] = test system: Past.multo. A 723; test: agar serial dilution test; type: cell-based, Pasteurella multocida; settings: Pasteurella multocida; agar serial dilution, 24 hours, 37° C.; read-out: minimal inhibitory concentration (MIC)
[10] = test system: Kleb.pneum. A 809; test: agar serial dilution test; type: cell-based, Klebsiella pneumoniae; settings: Klebsiella pneumoniae; agar serial dilution, 24 hours, 37° C.; read-out: minimal inhibitory concentration (MIC)
[11] = test system: Salm.dubl. P 43; test: agar serial dilution test; type: cell-based, Salmonella dublin; settings: Salmonella enterica, read-out: minimal inhibitory concentration (MIC)
[12] = test system: Salm.typh. R 127; test: agar serial dilution test; type: cell-based; settings: 24 h, 37° C., read-out: minimal inhibitory concentration (MIC)
[13] = test system: Esch.coli U 20; test: agar serial dilution test; type: cell-based, Escherichia coli; settings: Escherichia coli
[14] = test system: Shig.equir. T 3; test: agar serial dilution test; type: cell-based; settings: 24 h, 37° C., read-out: minimal inhibitory concentration (MIC)
[15] = test system: Pseud.aerug. H 10; test: agar serial dilution test; type: cell-based; settings: agar serial dilution, 24 hours, 37° C.; read-out: minimal inhibitory concentration (MIC)
[16] = test system: Pseud.aerug. 2396; test: agar serial dilution test; type: cell-based; settings: agar serial dilution, 24 hours, 37° C.; read-out: minimal inhibitory concentration (MIC)
[17] = test system: Pseud.aerug. Wyeth A 1058; test: agar serial dilution test; type: cell-based; settings: agar serial dilution, 24 hours, 37° C.; read-out: minimal inhibitory concentration (MIC)
[18] = test system: Prot.rettg. A 821; test: agar serial dilution test; type: cell-based, Proteus rettgeri; settings: Providencia rettgeri, 24 h, read-out: minimal inhibitory concentration (MIC)
[19] = test system: Prot.mirab. H 3; test: agar serial dilution test; type: cell-based, Proteus mirabilis; settings: Proteus mirabilis; agar serial dilution, 24 hours, 37° C.; read-out: minimal inhibitory concentration (MIC)
[20] = test system: Prot.mirab. L 93; test: agar serial dilution test; type: cell-based, Proteus mirabilis; settings: Proteus mirabilis; agar serial dilution, 24 hours, 37° C.; read-out: minimal inhibitory concentration (MIC)
[21] = test system: Prot.mirab. A 1200; test: agar serial dilution test; type: cell-based, Proteus mirabilis; settings: Proteus mirabilis, 24 h, read-out: minimal inhibitory concentration (MIC)
[22] = test system: Prot.morg. 2241; test: agar serial dilution test; type: cell-based; settings: 24 h, agar serial dilution, 24 hours, 37° C.; read-out: minimal inhibitory concentration (MIC)
[23] = test system: Staph.aureus A 355; test: micro serial dilution test; type: cell-based, Staphylococcus aureus; settings: Staphylococcus aureus, A355; micro serial dilution (in brackets), about 18 hours, 30° C. or 37° C.; penicillinase-producing strain; read-out: minimal inhibitory concentration (MIC)
[24] = test system: Staph.aureus A 2000; test: micro serial dilution test; type: cell-based, Staphylococcus aureus; settings: Staphylococcus aureus, A2000, 18 h, micro serial dilution (in brackets), about 18 hours, 30° C. or 37° C.; read-out: minimal inhibitory concentration (MIC)
[25] = test system: Staph.aureus A 2001; test: micro serial dilution test; type: cell-based, Staphylococcus aureus; settings: Staphylococcus aureus, A2001, 18 h, micro serial dilution (in brackets), about 18 hours, 30° C. or 37° C.; read-out: minimal inhibitory concentration (MIC)
[26] = test system: Haem.infl. A 1030; test: micro serial dilution test; type: cell-based; settings: 18 h, micro serial dilution (in brackets), about 18 hours, 30° C. or 37° C.; read-out: minimal inhibitory concentration (MIC)
[27] = test system: Staph.aureus A 355; test: agar serial dilution test; settings: Staphylococcus aureus, A355, 24 h, read-out: minimal inhibitory concentration (MIC), agar serial dilution, 24 hours, 37° C.; penicillinase-producing strain
[28] = agar serial dilution, 24 hours, 37° C.
[29] = U20, agar serial dilution, 24 hours, 37° C., read-out: minimal inhibitory concentration (MIC)
[30] = U20, 24 h, read-out: minimal inhibitory concentration (MIC), agar serial dilution, 24 hours, 37° C.

CC1=C(C(=O)O)N2C(=O)[C@@H](NC(=O)Cc3nc(Cc4ccccc4)no3)[C@H]2SC1 [Example 7, 7-[(3-benzyl-1,2,4-oxadiazol-5-yl)-acetamido]-desacetoxycephalosporanic acid]
MIC [1]: 3 µg/mL (≈ 7.24 µM)
MIC [2]: 3 µg/mL (≈ 7.24 µM)
MIC [3]: 25 µg/mL (≈ 60.3 µM)
MIC [4, 28]: 6 µg/mL (≈ 14.5 µM)
MIC [5]: 25 µg/mL (≈ 60.3 µM)
MIC [6]: 100 µg/mL (≈ 241 µM)
MIC [7]: 4 µg/mL (≈ 9.65 µM)
MIC [8]: 25 µg/mL (≈ 60.3 µM)
MIC [9]: 25 µg/mL (≈ 60.3 µM)
MIC [10]: 100 µg/mL (≈ 241 µM)
MIC [11, 28]: 100 µg/mL (≈ 241 µM)
MIC [12]: > 100 µg/mL
MIC [13, 29]: > 100 µg/mL
MIC [14]: > 100 µg/mL
MIC [15]: > 100 µg/mL
MIC [16]: > 100 µg/mL
MIC [17]: > 100 µg/mL
MIC [18, 28]: > 100 µg/mL
MIC [19]: > 100 µg/mL
MIC [20]: > 100 µg/mL
MIC [21, 28]: > 100 µg/mL
MIC [22]: > 100 µg/mL
MIC [23]: 8 µg/mL (≈ 19.3 µM)
MIC [24]: 4 µg/mL (≈ 9.65 µM)
MIC [25]: 5 µg/mL (≈ 12.1 µM)
MIC [26]: 30 µg/mL (≈ 72.4 µM)
MIC [27]: 100 µg/mL (≈ 241 µM)

CC(=O)OCC1=C(C(=O)O)N2C(=O)[C@@H](NC(=O)Cc3nc(-c4c(Cl)cccc4Cl)no3)[C@H]2SC1 [Example 11C, 7-{[3-(2,6-dichlorophenyl)-1,2,4-oxadiazol-5-yl]-acetamido}cephalosporanicacid]
MIC [1]: 0.12 µg/mL (≈ 0.228 µM)
MIC [2]: 0.12 µg/mL (≈ 0.228 µM)
MIC [3]: 0.5 µg/mL (≈ 0.948 µM)
MIC [4, 28]: 0.5 µg/mL (≈ 0.948 µM)
MIC [5]: 0.03 µg/mL (≈ 0.0569 µM)
MIC [6]: 1.5 µg/mL (≈ 2.84 µM)
MIC [7]: 0.06 µg/mL (≈ 0.114 µM)
MIC [8]: 6 µg/mL (≈ 11.4 µM)
MIC [9]: 6 µg/mL (≈ 11.4 µM)
MIC [10]: 12.5 µg/mL (≈ 23.7 µM)
MIC [11, 28]: > 100 µg/mL
MIC [12]: > 100 µg/mL
MIC [13, 29]: > 100 µg/mL
MIC [14]: 25 µg/mL (≈ 47.4 µM)
MIC [15]: > 100 µg/mL
MIC [16]: > 100 µg/mL
MIC [17]: > 100 µg/mL
MIC [18, 28]: 3 µg/mL (≈ 5.69 µM)
MIC [19]: > 100 µg/mL
MIC [20]: 100 µg/mL (≈ 190 µM)
MIC [21, 28]: > 100 µg/mL
MIC [22]: > 100 µg/mL
MIC [23]: 0.69 µg/mL (≈ 1.31 µM)
MIC [24]: 0.18 µg/mL (≈ 0.341 µM)
MIC [25]: 0.25 µg/mL (≈ 0.474 µM)
MIC [26]: 23 µg/mL (≈ 43.6 µM)
MIC [27]: 0.5 µg/mL (≈ 0.948 µM)

CC(=O)OCC1=C(C(=O)O)N2C(=O)[C@@H](NC(=O)Cc3noc(C)n3)[C@H]2SC1 [Example 11D, 7-[(5-methyl-1,2,4-oxadiazol-3-yl)-acetamido]-cephalosporanic acid]
MIC [1]: 0.5 µg/mL (≈ 1.26 µM)
MIC [2]: 1 µg/mL (≈ 2.52 µM)
MIC [3]: 3 µg/mL (≈ 7.57 µM)
MIC [4, 28]: 3 µg/mL (≈ 7.57 µM)
MIC [5]: 0.5 µg/mL (≈ 1.26 µM)
MIC [6]: 100 µg/mL (≈ 252 µM)
MIC [7]: 1.5 µg/mL (≈ 3.78 µM)
MIC [8]: 10 µg/mL (≈ 25.2 µM)
MIC [9]: 6 µg/mL (≈ 15.1 µM)
MIC [10]: 6 µg/mL (≈ 15.1 µM)
MIC ([11]; 24 h): 12.5 µg/mL (≈ 31.5 µM)
MIC [12]: 12.5 µg/mL (≈ 31.5 µM)
MIC [13, 30]: 12.5 µg/mL (≈ 31.5 µM)
MIC [14]: 1.5 µg/mL (≈ 3.78 µM)
MIC [15]: > 100 µg/mL
MIC [16]: > 100 µg/mL
MIC [17]: > 100 µg/mL
MIC [18, 28]: 40 µg/mL (≈ 101 µM)
MIC [19]: 6 µg/mL (≈ 15.1 µM)
MIC [20]: 6 µg/mL (≈ 15.1 µM)
MIC [21]: 12.5 µg/mL (≈ 31.5 µM)
MIC [22]: > 100 µg/mL
MIC [23]: 6 µg/mL (≈ 15.1 µM)
MIC [24]: 1.2 µg/mL (≈ 3.03 µM)
MIC [25]: 0.6 µg/mL (≈ 1.51 µM)
MIC [26]: 90 µg/mL (≈ 227 µM)
MIC [27]: 6 µg/mL (≈ 15.1 µM)

CC1=C(C(=O)O)N2C(=O)[C@@H](NC(=O)Cc3nc(C)no3)[C@H]2SC1 [Example 11F, 7-[(3-methyl-1,2,4-oxadiazol-5-yl)-acetamido]-desacetoxycephalosporanic acid]
MIC [1]: 6 µg/mL (≈ 17.7 µM)
MIC [2]: 6 µg/mL (≈ 17.7 µM)
MIC [3]: 50 µg/mL (≈ 148 µM)
MIC [4]: 12.5 µg/mL (≈ 36.9 µM)
MIC [5]: 6 µg/mL (≈ 17.7 µM)
MIC [6]: > 100 µg/mL
MIC [7]: 50 µg/mL (≈ 148 µM)
MIC [8]: 6 µg/mL (≈ 17.7 µM)
MIC [9]: 100 µg/mL (≈ 296 µM)
MIC [10]: 100 µg/mL (≈ 296 µM)
MIC [11, 28]: 100 µg/mL (≈ 296 µM)
MIC [12]: > 100 µg/mL
MIC [13, 29]: > 100 µg/mL
MIC [14]: 12.5 µg/mL (≈ 36.9 µM)
MIC [15]: > 100 µg/mL
MIC [16]: > 100 µg/mL
MIC [17]: > 100 µg/mL
MIC [18, 28]: > 100 µg/mL
MIC [19]: > 100 µg/mL
MIC [20]: > 100 µg/mL
MIC [21, 28]: > 100 µg/mL
MIC [22]: > 100 µg/mL
MIC [23]: 15 µg/mL (≈ 44.3 µM)
MIC [24]: 15 µg/mL (≈ 44.3 µM)
MIC [25]: 8 µg/mL (≈ 23.6 µM)
MIC [26]: 125 µg/mL (≈ 369 µM)
MIC [27]: 50 µg/mL (≈ 148 µM)

Cc1nc(CC(=O)N[C@@H]2C(=O)N3C(C(=O)O)=C(CN=[N+]=[N-])CS[C@H]23)no1 [Example 18, 7-[(5-methyl-1,2,4-oxadiazol-3-yl)-acetamido]-3-azidomethyl-3-cephem-4-carboxylic acid]
MIC [1]: 1 µg/mL (≈ 2.64 µM)
MIC [2]: 1 µg/mL (≈ 2.64 µM)
MIC [3]: 1.5 µg/mL (≈ 3.95 µM)
MIC [4, 28]: 1 µg/mL (≈ 2.64 µM)
MIC [5]: 0.25 µg/mL (≈ 0.659 µM)
MIC [6]: > 100 µg/mL
MIC [7]: 3 µg/mL (≈ 7.91 µM)
MIC [8]: 6 µg/mL (≈ 15.8 µM)
MIC [9]: 10 µg/mL (≈ 26.4 µM)
MIC [10]: 6 µg/mL (≈ 15.8 µM)
MIC [11, 28]: 6 µg/mL (≈ 15.8 µM)
MIC [12]: 12.5 µg/mL (≈ 33 µM)
MIC [13, 30]: 12.5 µg/mL (≈ 33 µM)
MIC [14]: 3 µg/mL (≈ 7.91 µM)
MIC [15]: > 100 µg/mL
MIC [16]: > 100 µg/mL
MIC [17]: > 100 µg/mL
MIC [18]: 12.5 µg/mL (≈ 33 µM)
MIC [19]: 25 µg/mL (≈ 65.9 µM)
MIC [20]: 6 µg/mL (≈ 15.8 µM)
MIC [21, 28]: 25 µg/mL (≈ 65.9 µM)
MIC [22]: > 100 µg/mL
MIC [23]: 1.2 µg/mL (≈ 3.16 µM)
MIC [24]: 1.2 µg/mL (≈ 3.16 µM)
MIC [25]: 0.9 µg/mL (≈ 2.37 µM)
MIC [26]: 6 µg/mL (≈ 15.8 µM)
MIC [27]: 1.5 µg/mL (≈ 3.95 µM)
